Among the data in patent US20220289753A1, “SHP2 INHIBITORS” (IRBM S.P.A., priority 2019, published 2022) are IC50 values, retold here.

Assay [1] deals with T1, SHP-2 enzyme (Met1-Leu525) (Homo sapiens, UniProt Q06124).
T1 construct: synthetized by Origene, Met1-Leu525, cat #TP750155; purchased Origene TP750155
T1 sequence (Q06124 1-525): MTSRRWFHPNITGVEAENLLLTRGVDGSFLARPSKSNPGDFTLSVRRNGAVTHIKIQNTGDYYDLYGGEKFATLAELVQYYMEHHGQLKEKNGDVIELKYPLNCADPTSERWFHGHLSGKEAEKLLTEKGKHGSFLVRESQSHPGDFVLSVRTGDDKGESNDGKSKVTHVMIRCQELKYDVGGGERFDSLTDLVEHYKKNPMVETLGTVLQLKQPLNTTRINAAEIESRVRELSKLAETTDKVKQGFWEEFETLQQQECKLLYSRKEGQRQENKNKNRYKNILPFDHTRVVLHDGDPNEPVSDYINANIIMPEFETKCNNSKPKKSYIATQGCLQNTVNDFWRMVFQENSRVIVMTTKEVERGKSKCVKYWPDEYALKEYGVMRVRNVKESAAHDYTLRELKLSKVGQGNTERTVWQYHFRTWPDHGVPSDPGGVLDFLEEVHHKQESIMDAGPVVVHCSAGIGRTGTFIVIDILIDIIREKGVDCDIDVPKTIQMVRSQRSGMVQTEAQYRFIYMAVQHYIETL
Description: SHP2 inhibition enzymatic assay (DiFMUP substrate, IRS1 peptide activation). It counts as biochemical. The following applies: SHP2 wt; activated by 500 nM IRS1 peptide; 75 μM DiFMUP substrate. The gist of the method: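 SHP-2 (Met1-Leu525, 0.5 nM final) preincubated 30 min with compounds and IRS1 activating peptide in HEPES pH 7.2 buffer with NaCl, KCl, EDTA, tween-20, 5 mM DTT. DiFMUP then added for 30 min at room temperature and fluorescence read. IC50 from four-parameter logistic fit of % inhibition.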

In assay [2] the test system is ERK phosphorylation in KYSE-520 cells. The assay is described as follows: Phospho-ERK cellular assay (Advanced phospho-ERK1/2 (Thr202/Tyr204) TR-FRET kit). In kind it is cell-based. The note with it: Homo sapiens, KYSE-520, 2 h, KYSE-520 cells, 2 h at 37° C., TR-FRET; read-out: pERK IC50. The procedure: Phospho-ERK Cellular Assay
ERK phosphorylation was detected using the “Advanced phospho-ERK1/2 (Thr202/Tyr204)” TR-FRET kit (Cisbio, Cat #64AERPEG/H), following the manufacturer reagents and instructions. […] After an overnight incubation, cells were treated with DMSO serial diluted compounds and incubated for 2 h at 37° C. After incubation, 2 μL/well of 4× Lysis Buffer (Cisbio 64KL1FDF), were added and incubated with cells for 30 min on gentle shaking. Finally, lysates were added with 2 μL/well of Eu cryptate (donor) and D2 (acceptor) conjugated antibodies (as provided by the Cisbio kit #64AERPEG/H) diluted 1:100 in Detection Buffer (as provided by the Cisbio kit #64AERPEG/H). Plates were then sealed and incubated at room temperature in the dark. After an overnight incubation, the TR-FRET signal was detected on a suitable reader (Envision, PerkinElmer). The lower the TR-FRET signal the higher the higher the SHP2 inhibition in cells. […] The percentage activity is fitted against the compound dilutions with a four-parameter logistic regression. The inflection point (i.e. the concentration at which half-maximal inhibition is achieved) is the IC50.
(In TR-FRET formats the signal depends on donor and acceptor labels being close together.)

For orientation: IC50 means the point on the concentration scale where inhibition reaches its midpoint. On to `COc1nnccc1Sc1cnc2[nH]c(N3CCC4(CC3)Cc3ccccc3[C@H]4N)nc2n1` [Example 236, (S)-1′-(5-((3-methoxypyridazin-4-yl)thio)-1H-imidazo[4,5-b]pyrazin-2-yl)-1,3-dihydrospiro[indene-2,4′-piperidin]-1-amine], for which the results for the IC50 in assay [1] and in assay [2] were 500 to 3000 nM and more than 5000 nM, respectively.

For `Nc1nccc(Sc2cnc3[nH]c(N4CCC5(CC4)Cc4cc(CO)ccc4[C@H]5N)nc3n2)c1Cl` [Example 252, (S)-(1-amino-1′-(5-((2-amino-3-chloropyridin-4-yl)thio)-1H-imidazo[4,5-b]pyrazin-2-yl)-1,3-dihydrospiro[indene-2,4′-piperidin]-5-yl)methanol], the IC50 in assay [1] is less than 500 nM; in assay [2] it was less than 1000 nM.

In the case of `CNc1nccc(-c2cnc3[nH]c(N4CCC5(CC4)Cc4ccccc4[C@H]5N)nc3n2)c1Cl` [Example 140, (S)-1′-(5-(3-chloro-2-(methylamino)pyridin-4-yl)-1H-imidazo[4,5-b]pyrazin-2-yl)-1,3-dihydrospiro[indene-2,4′-piperidin]-1-amine], the IC50 in assay [1] is 500 to 3000 nM; in assay [2] it was more than 5000 nM.

Take `COC1CN(c2nccc(Sc3cnc4nc(N5CCC6(CC5)Cc5ccccc5[C@H]6N)[nH]c4n3)c2Cl)C1` [Example 181, (S)-1′-(5-((3-chloro-2-(3-methoxyazetidin-1-yl)pyridin-4-yl)thio)-1H-imidazo[4,5-b]pyrazin-2-yl)-1,3-dihydrospiro[indene-2,4′-piperidin]-1-amine]: the IC50 was less than 500 nM in assay [1] and more than 5000 nM in assay [2].

In the case of `N[C@@H]1c2ncccc2OC12CCN(c1nc3nc(Sc4ccncc4Cl)cnc3[nH]1)CC2` [Example 163, (R)-1′-(5-((3-chloropyridin-4-yl)thio)-1H-imidazo[4,5-b]pyrazin-2-yl)-3H-spiro[furo[3,2-b]pyridine-2,4′-piperidin]-3-amine], the IC50 in assay [1] was less than 500 nM; in assay [2], more than 5000 nM.

Take `Nc1nccc(Sc2cnc3[nH]c(N4CCC5(CC4)Cc4ccc(Br)cc4[C@H]5N)nc3n2)c1Cl` [Example 219, (S)-1′-(5-((2-amino-3-chloropyridin-4-yl)thio)-1H-imidazo[4,5-b]pyrazin-2-yl)-6-bromo-1,3-dihydrospiro[indene-2,4′-piperidin]-1-amine]: the figures for the IC50 in assay [1] and in assay [2] were less than 500 nM and less than 1000 nM, respectively.

On to `N#Cc1ccc2c(c1)[C@H](N)C1(CCN(c3nc4nc(Sc5ccnc(N)c5Cl)cnc4[nH]3)CC1)C2` [Example 260, (R)-1-amino-1′-(5-((2-amino-3-chloropyridin-4-yl)thio)-1H-imidazo[4,5-b]pyrazin-2-yl)-1,3-dihydrospiro[indene-2,4′-piperidine]-6-carbonitrile], for which the IC50 in assay [1] is less than 500 nM; in assay [2], less than 1000 nM.

As to `N[C@@H]1c2cccnc2CC12CCN(c1nc3ncc(Sc4ccc5c(c4Cl)NC(=O)CO5)nc3[nH]1)CC2` [Example 169, (S)-6-((2-(5-amino-5,7-dihydrospiro[cyclopenta[b]pyridine-6,4′-piperidin]-1′-yl)-1H-imidazo[4,5-b]pyrazin-6-yl)thio)-5-chloro-2H-benzo[b][1,4]oxazin-3(4H)-one], the IC50 in assay [1] was less than 500 nM; in assay [2], less than 1000 nM.

For the molecule `CC(=O)N1CC(F)(F)c2c(Sc3cnc4[nH]c(N5CCC6(CC5)Cc5ccccc5[C@H]6N)nc4n3)cccc21` [Example 135, (S)-1-(4-((2-(1-amino-1,3-dihydrospiro[indene-2,4′-piperidin]-1′-yl)-1H-imidazo[4,5-b]pyrazin-5-yl)thio)-3,3-difluoroindolin-1-yl)ethan-1-one], the half-inhibitory concentration (IC50) in assay [1] is less than 500 nM; in assay [2], less than 1000 nM.

On to `N[C@@H]1c2ccccc2CC12CCN(c1nc3nc(Sc4cccc5nonc45)cnc3[nH]1)CC2` [Example 213, (S)-1′-(5-(benzo[c][1,2,5]oxadiazol-4-ylthio)-1H-imidazo[4,5-b]pyrazin-2-yl)-1,3-dihydrospiro[indene-2,4′-piperidin]-1-amine], for which the figures for the IC50 in assay [1] and in assay [2] were less than 500 nM and less than 1000 nM, respectively.

Turning to `COc1nc(N)ccc1Sc1cnc2[nH]c(N3CCC4(CC3)Cc3ccccc3[C@H]4N)nc2n1` [Example 269, (S)-1′-(5-((6-amino-2-methoxypyridin-3-yl)thio)-1H-imidazo[4,5-b]pyrazin-2-yl)-1,3-dihydrospiro[indene-2,4′-piperidin]-1-amine], the concentration for half-maximal inhibition (IC50) is less than 500 nM in assay [1] and less than 1000 nM in assay [2].

Consider `CC1(N)CCN(c2nc3nc(Sc4cccc(Cl)c4Cl)ncc3[nH]2)CC1` [Example 144, 1-(2-((2,3-dichlorophenyl)thio)-7H-purin-8-yl)-4-methylpiperidin-4-amine], for which the IC50 in assay [1] is 500 to 3000 nM; in assay [2], more than 5000 nM.

Consider `Nc1nccc(Sc2cnc3[nH]c(N4CCC5(CC4)Cc4ncccc4[C@H]5N)nc3n2)c1Cl` [Example 145, (S)-1′-(5-((2-amino-3-chloropyridin-4-yl)thio)-1H-imidazo[4,5-b]pyrazin-2-yl)-5,7-dihydrospiro[cyclopenta[b]pyridine-6,4′-piperidin]-5-amine], for which the IC50 in assay [1] was less than 500 nM; in assay [2], less than 1000 nM.

Regarding `N[C@@H]1c2ccccc2CC12CCN(c1nc3nc(Sc4cc(Cl)nn5ccnc45)cnc3[nH]1)CC2` [Example 251, (S)-1′-(5-((6-chloroimidazo[1,2-b]pyridazin-8-yl)thio)-1H-imidazo[4,5-b]pyrazin-2-yl)-1,3-dihydrospiro[indene-2,4′-piperidin]-1-amine], the IC50 is less than 500 nM in assay [1] and 1000 to 5000 nM in assay [2].

With `CCOc1cnccc1Sc1cnc2[nH]c(N3CCC4(CC3)Cc3ccccc3[C@H]4N)nc2n1` [Example 200, (S)-1′-(5-((3-ethoxypyridin-4-yl)thio)-1H-imidazo[4,5-b]pyrazin-2-yl)-1,3-dihydrospiro[indene-2,4′-piperidin]-1-amine], the IC50 is less than 500 nM in assay [1] and less than 1000 nM in assay [2].

Regarding `Cc1c(Sc2cnc3nc(N4CCC5(CC4)Cc4ccccc4[C@H]5N)[nH]c3n2)ccnc1N` [Example 204, (S)-1′-(6-((2-amino-3-methylpyridin-4-yl)thio)-1H-imidazo[4,5-b]pyrazin-2-yl)-1,3-dihydrospiro[indene-2,4′-piperidin]-1-amine], the values for the IC50 in assay [1] and in assay [2] were less than 500 nM and less than 1000 nM, respectively.

In the case of `N[C@@H]1c2ccccc2CC12CCN(c1nc3nc(Sc4ccnc5cccc(F)c45)cnc3[nH]1)CC2` [Example 218, (S)-1′-(5-((5-fluoroquinolin-4-yl)thio)-1H-imidazo[4,5-b]pyrazin-2-yl)-1,3-dihydrospiro[indene-2,4′-piperidin]-1-amine], the results for the IC50 in assay [1] and in assay [2] were less than 500 nM and less than 1000 nM, respectively.

Consider `N[C@@H]1c2ccccc2CC12CCN(c1nc3ncc(Sc4ccnc(N5CCOCC5)c4Cl)nc3[nH]1)CC2` [Example 180, (S)-1′-(5-((3-chloro-2-morpholinopyridin-4-yl)thio)-1H-imidazo[4,5-b]pyrazin-2-yl)-1,3-dihydrospiro[indene-2,4′-piperidin]-1-amine], for which the results for the IC50 in assay [1] and in assay [2] were less than 500 nM and less than 1000 nM, respectively.

In the case of `CC1(N)CCN(c2nc3ncc(Sc4cccnc4C(F)(F)F)nc3[nH]2)CC1` [Example 1, 4-methyl-1-(6-((2-(trifluoromethyl)pyridin-3-yl)thio)-1H-imidazo[4,5-b]pyrazin-2-yl)piperidin-4-amine], the IC50 is less than 500 nM in assay [1] and 1000 to 5000 nM in assay [2].

On to `Nc1nccc(Sc2cnc3nc(N4CCC5(CC4)Cc4ccc(F)cc4[C@H]5N)[nH]c3n2)c1Cl` [Example 175, (S)-1′-(6-((2-amino-3-chloropyridin-4-yl)thio)-1H-imidazo[4,5-b]pyrazin-2-yl)-6-fluoro-1,3-dihydrospiro[indene-2,4′-piperidin]-1-amine], for which the IC50 in assay [1] was less than 500 nM; in assay [2], less than 1000 nM.

Turning to `Cc1ccnc2c(Sc3cnc4[nH]c(N5CCC6(CC5)Cc5ccccc5[C@H]6N)nc4n3)ccnc12` [Example 254, (S)-1′-(5-((8-methyl-1,5-naphthyridin-4-yl)thio)-1H-imidazo[4,5-b]pyrazin-2-yl)-1,3-dihydrospiro[indene-2,4′-piperidin]-1-amine], the IC50 in assay [1] is less than 500 nM; in assay [2], less than 1000 nM.
